BindingDB's records for doi:10.1021/jm0506165 (Universita Di Napoli Federico Ii, 2006)

Molecular target: Protein farnesyltransferase/geranylgeranyltransferase type-1 subunit alpha (Bos taurus, UniProt P29702)
Test: PFT IC50 Determination
Conditions: pH 7.5; 37 °C
Method: Assays for PFT activity were performed with a PFT-specific scintillation assay (SPA) kit (Amersham Biosciences, Piscataway, NJ). IC50 values were calculated using linear regression analysis of the plots of [3H] farnesyl pyrophosphate (FPP) prenylation versus concentration of compounds.

IC50 | Structure (SMILES)
100 nM | CSCC[C@H](NC(=O)[C@H](Cc1ccc(O)c(C)c1C)NC(=O)[C@@H](NC(=O)[C@@H](N)CS)C(C)C)C(=O)O [(2S)-2-[(2S)-2-[(2S)-2-[(2R)-2-amino-3-sulfanylpropanamido]-3-methylbutanamido]-3-(4-hydroxy-2,3-dimethylphenyl)propanamido]-4-(methylsulfanyl)butanoic acid]
> 100000 nM | CSCC[C@H](NC(=O)[C@@H](Cc1ccc(O)c(C)c1C)NC(=O)[C@@H](NC(=O)[C@H](CS)NC=O)C(C)C)C(=O)O [Cmpound XI]
